Reference: article PMC4372538, “Advantages of the Phosphatidylserine-Recognizing Peptide PSP1 for Molecular Imaging of Tumor Apoptosis Compared with Annexin V” (PLoS ONE, 2015)
“Also recorded” adds a separate entry of the source. Where two headings read alike, the source gives them in different places.

Legend:
PS liposomes = assay: SPR binding to PS liposomes
From the text: To compare the kinetics of annexin V and PSP1 peptide binding to PS liposomes, SPR spectroscopy was employed (Reichert Inc, NY, USA). PC and PS liposomes (0.8:0.2 PC:PS) were generated as previously described and were homogenously purified using a liposome mini-extruder with a 100 nm membrane filter, based on the manufacturer’s protocol (Avanti Polar Lipids). […] Briefly, phytosphingosine was immobilized by activating the carboxymethyl groups on dextran-coated chips (Reichert Life Sciences) through a reaction with N-hydroxysuccinimide (Sigma-Aldrich), followed by covalent bonding of the ligands to the chip surface via amide linkages and blocking of excess activated carboxyls with ethanolamine. The purified PS or PC liposomes were captured on the phytosphingosine layer at a flow rate of 5 μl/min in liposome immobilization buffer (10 mM Tris-HCl (pH 8.0), 100 mM NaCl, and 2 mM CaCl2). To use the PC-immobilized surface as a control, the injected PS or PC liposome volume was adjusted to an immobilization level of approximately 4000±200 RU. Different concentrations of the PSP1 peptide (0.313 to 5 μM) and annexin V (3.13 to 100 nM) in running buffer (10 mM Tris-HCl (pH 8.0), 100 mM NaCl, 2 mM CaCl2, and 62.5 μg/ml BSA) were allowed to flow over the surfaces bound to the immobilized liposomes for 3 min at a rate of 30 μl/min. The sensor surface was regenerated after each association and dissociation cycle by injecting 10 mM EDTA for 20 s, followed by 50 mM NaOH for 10 s. The interaction of the ligand and the analyte was analyzed using Scrubber 2 Biologic software (http://www.biologic.com.au/). The binding kinetics was assessed by determining the association (kon), dissociation (koff), and equilibrium (KD) constants.
The in vitro binding affinity of PSP1 and annexin V for PS was further examined using SPR analysis (Fig. 2). […] We immobilized PS liposomes on the surface of an SPR chip, applied a series of different concentrations of PSP1 or annexin V, and examined the binding kinetics. PS-specific binding was determined by subtracting binding responses to a PC liposome-coated surface from those obtained using a PS liposome-coated […] surface.
Fig 2 In vitro SPR analysis of PSP1 and annexin V binding to PS liposomes. (A) The indicated concentrations of PSP1 were injected onto the liposome-immobilized surface. Responses (RU) from the PC liposome-coated surface (reference) were subtracted from those from the PS:PC (2:8) liposome surface to monitor PS-specific binding. The equilibration binding constant (KD) and the association (Kon) and dissociation (Koff) rate constants were estimated using the Scrubber program. (B) Plots of the RU values of annexin V at the indicated concentrations.

apoptotic H460 cells [1] = assay: FACS binding to apoptotic H460 cells; assay type: cell-based, human; settings: FITC-labeled, etoposide 50 μM 22 hrs, 2, 10, 20, 50 μg/ml, binding buffer 10 mM Hepes pH 7.4, 150 mM NaCl ± 2 mM CaCl2, 4°C, 1 hr
Procedure: The human lung cancer cell H460, which was obtained from the American Type Culture Collection (ATCC), was maintained in RPMI-1640 media supplemented with 10% heat-inactivated fetal bovine serum (FBS) and penicillin G/streptomycin at 37°C in a humidified atmosphere of 95% air and 5% CO2.
To induce apoptosis of lung tumor cells (H460), the cells (5×10^6 cell) were grown overnight and then treated with etoposide (50 μM) (Sigma) in serum-free media for 22 hrs, followed by washing with phosphate-buffered saline (PBS) and binding buffer (10 mM Hepes (pH 7.4), 150 mM NaCl, and 2 mM CaCl2).
Control peptide (grey); FITC-NSSSVDK.

apoptotic H460 cells [2] = assay: confocal microscopy of binding to apoptotic H460 cells; assay type: cell-based, human
[3] = tested on: necrotic and nonapoptotic cells with exposed anionic lipids; settings: under specific physiological or pathological conditions, ref [12], cited from earlier work
From the text: (§1) The exposure of phosphatidylserine (PS) on the outer surface of the plasma membrane bilayer, an early biochemical event in apoptosis, is an attractive target for molecular imaging of dying cells. During chemo- and radiotherapy, subsequent necrosis also results in PS exposure due to disruption of the plasma membrane’s integrity. […] The stability and biodistribution of annexin V derivatives depend ...

[4] = calcium-dependent; ref [9],[10]; cited from earlier work
From the text: as §1

[5] = tested on: apoptotic tumor cells in H460 tumor-bearing mice; assay: in vivo fluorescence imaging of tumors after apoptosis induction; design: species or system BALB/c nude mice; human H460 tumor; settings: Cy7.5-labeled
Procedure: Female nude mice (BALB/c nude; body weight, 20±3 g; n = 5) were housed in a specific pathogen-free environment at 22±2°C and 55±5% relative humidity with light. Tumors were generated by subcutaneously injecting H460 cells (5×10^6 cells) into the right shoulder of 6-wk-old female BALB/c nude mice and allowing them to grow for 3 weeks (size of 0.5 to 0.7 cm). For in vivo analysis of tumor targeting, the tumor-bearing mice were either treated or not treated with a single dose of camptothecin (10 mg/kg) 24 hrs prior to intravenous injection of Cy7.5-labeled PSP1, Cy7.5-annexin V or Cy7.5-labeled control peptide into the tail vein under inhalational anesthesia (1% (w/v) isoflurane in 2 L oxygen).
In vivo fluorescence images were taken at different time intervals after peptide injection (10 min, 1 h, 3 h, 6 h, and 12 h) using an eXplore Optix system (ART Advanced Research Technologies Inc., Montreal, Canada), which has excitation/emission wavelengths of 778 nm/805 nm. The obtained images were processed using eXplore Optix OptiView Software and normalized based on the baseline fluorescence, assessed for each mouse prior to peptide injection.
Fig 4 In vivo imaging of tumors after apoptosis induction. (A) Cy7.5-labelled PSP1peptide, control peptide, or annexin V was systematically injected into the tail vein of tumor-bearing nude mice treated with camptothecin 24 hrs before injection. The same amount of annexin V was also injected into non-camptothecin-treated tumor-bearing mice as a control. The homing of the peptides was examined after the indicated times using an optical imaging system. The white dotted circles indicate the tumors. (B) Histological examination of tumor tissues after homing of PSP1 and annexin V, performed under a fluorescence microscope. Tumor cell apoptosis was observed by TUNEL staining.

[6] = PS:PC (2:8) liposomes, PC response subtracted, Tris-HCl pH 8.0, 2 mM CaCl2, Scrubber, value from picture

**Q.** With “annexin V: endogenous 36-kDa human protein that binds to PS with nanomolar affinity; His-tagged, expressed in Escherichia coli BL-21” as the substance, how does the Kd (PS liposomes; PS liposomes, PC liposome response subtracted, Tris-HCl pH 8.0, 2 mM CaCl2, read-out: in vitro binding affinity (equilibrium binding constant)) read?
**A.** 3.1 nM

**Q.** And the equilibration binding constant (KD) (PS liposomes; PS:PC (2:8) liposomes on phytosphingosine/CMDH chip, PC liposome response subtracted, 10 mM Tris-HCl pH 8.0, 100 mM NaCl, 2 mM CaCl2, 62.5 μg/ml BSA, PSP1 0.313 to 5 μM, annexin V 3.13 to 100 nM, 3 min, 30 μl/min, Scrubber 2, values from picture)?
**A.** 3.15 nM

**Q.** And the “association rate constant (Kon)” value (PS liposomes; [6])?
**A.** 1.05±0.76×10^6 M^-1S^-1

**Q.** What about the “dissociation rate constant (Koff)” value (PS liposomes; [6]) of the same substance?
**A.** 1.75±1.28×10^-3 S^-1

**Q.** What about the “binding to apoptotic H460 cells (FACS)” value (apoptotic H460 cells [1]) of the same substance?
**A.** specifically bound to apoptotic H460 cells in a concentration-dependent manner

**Q.** And the “binding to apoptotic H460 cells (FACS)” value (apoptotic H460 cells [1]; listed as Annexin V)?
**A.** appeared to exhibit a greater ability to bind to apoptotic cells

**Q.** What about the “apoptotic cell-specific signal (confocal microscopy)” value (apoptotic H460 cells [2]; FITC-labeled, 20 μg/ml, apoptotic H460 (etoposide 50 μM), 4°C, 1 hr) of the same substance?
**A.** significantly weaker at the same concentration

**Q.** What about the “predicted sensitivity of annexin V over PSP1” value (apoptotic H460 cells [2]; same concentration, predicted from KD ratio, molar concentration 1/16th and 0.7 FITC groups/molecule, not observed) of the same substance?
**A.** 150 fold

**Q.** And the “specificity of annexin V for apoptotic cells” value [3]?
**A.** not entirely specific for apoptotic cells

**Q.** And the “specificity of annexin V for apoptotic cells” value ([3]; listed as Annexin V)?
**A.** targets necrotic as well as nonapoptotic cells with exposed anionic lipids

**Q.** And the “PS binding affinity of annexin V” value [4]?
**A.** binds to PS with nanomolar affinity in a calcium-dependent manner

**Q.** And the “duration of in vivo fluorescence signal in tumor region” value ([5]; i.v. tail vein, camptothecin 10 mg/kg 24 hrs before, PSP1 10 μg/200 μl (23.16 μM), annexin V 100 μg/200 μl (14.3 μM))?
**A.** more than 12 hrs

**Q.** And the “in vivo tumor homing, non-camptothecin-treated” value ([5]; i.v., 100 μg/200 μl, non-camptothecin-treated tumor-bearing mice)?
**A.** did not home to the tumor region

**Q.** What about the “in vivo tumor homing” value ([5]; i.v., camptothecin-treated H460 tumor-bearing mice, n = 5, imaging 10 min to 12 h, PSP1 10 μg/200 μl, annexin V and control peptide 100 μg/200 μl) of the same substance?
**A.** weak signals; also recorded: rapidly observed in the tumor region
